Assay results: patent US20120083522A1, “MODULATION OF INFLAMMATORY RESPONSES BY FACTOR XI” (Isis Pharmaceuitcals, inc., priority 2009, published 2012)
In the oligonucleotide strings, read from the 5' end, every base follows the letter of its sugar. An asterisk marks phosphorothioate; unmarked linkages are phosphodiester. Other units and linkages are bracketed, terminal groups are in braces. A string of capitals states the bases alone. e = 2'-O-(2-methoxyethyl) (MOE); [5mC] = 5-methylcytosine; d = 2'-deoxy (DNA)

System: human Factor XI mRNA
Test: Antisense inhibition in HepG2 cells by microwalk gapmers, 8,000 nM, electroporation (Example 14)
Assay type: cell-based
Details: HepG2 cells, 8,000 nM
Experimental: These microwalk gapmers were tested in vitro. Cultured HepG2 cells at a density of 20,000 cells per well were transfected using electroporation with 8,000 nM antisense oligonucleotide. After a treatment period of approximately 24 hours, RNA was isolated from the cells and Factor XI mRNA levels were measured by quantitative real-time PCR. Factor XI mRNA levels were adjusted according to total RNA content, as measured by RIBOGREEN. Results are presented as percent inhibition of Factor XI, relative to untreated control cells.
The chimeric antisense oligonucleotides in Table 51 were designed as 5-10-5 MOE, 5-8-5 and 6-8-6 MOE gapmers. The first two listed gapmers in Table 51 are the original gapmers (ISIS 416850 and ISIS 416858) from which ISIS 445493-445543 were designed via microwalk, and are designated by an asterisk. The 5-10-5 gapmers are 20 nucleotides in length, wherein the central gap segment is comprised of ten 2′-deoxynucleotides and is flanked on both sides (in the 5′ and 3′ directions) by wings comprising five nucleotides each. The 5-8-5 gapmers are 18 nucleotides in length, wherein the central gap segment is comprised of eight 2′-deoxynucleotides and is flanked on both sides (in the 5′ and 3′ directions) by wings comprising five nucleotides each. The 6-8-6 gapmers are 20 nucleotides in length, wherein the central gap segment is comprised of eight 2′-deoxynucleotides and is flanked on both sides (in the 5′ and 3′ directions) by wings comprising six nucleotides each. For each of the motifs (5-10-5, 5-8-5 and 6-8-6), each nucleotide in the 5′ wing segment and each nucleotide in the 3′ wing segment has a 2′-MOE modification. The internucleoside linkages throughout each gapmer are phosphorothioate (P═S) linkages. All cytidine residues throughout each gapmer are 5-methylcytidines. “Human Target start site” indicates the 5′-most nucleotide to which the gapmer is targeted in the human sequence. “Human Target stop site” indicates the 3′-most nucleotide to which the gapmer is targeted in the human sequence. Each gapmer listed in Table 51 is targeted to SEQ ID NO: 1 (GENBANK Accession No. NM_000128.3). Each gapmer is Table 51 is also fully cross-reactive with the rhesus monkey Factor XI gene sequence, designated herein as SEQ ID NO: 274 (exons 1-15 GENBANK Accession No. NW—001118167.1). ‘Rhesus monkey start site’ indicates the 5′-most nucleotide to which the gapmer is targeted in the rhesus monkey sequence. ‘Rhesus monkey stop site’ indicates the 3′-most nucleotide to which the gapmer is targeted to the rhesus monkey sequence.

| Substance | Percent inhibition of human Factor XI mRNA levels |
| --- | --- |
| 445495 (antisense GCACAGTTTCTGGCAGGCCT; 6-8-6 gapmer chemistry, chemistry not fully specified) [compound 445495] | 89% |
| 445496 (antisense TGCACAGTTTCTGGCAGGCC; 6-8-6 gapmer chemistry, chemistry not fully specified) [compound 445496] | 87% |
| 445497 (antisense GTGCACAGTTTCTGGCAGGC; 6-8-6 gapmer chemistry, chemistry not fully specified) [compound 445497] | 81% |
| 445499 (antisense TGGTGCACAGTTTCTGGCAG; 6-8-6 gapmer chemistry, chemistry not fully specified) [compound 445499] | 75% |
| 445500 (antisense TTGGTGCACAGTTTCTGGCA; 6-8-6 gapmer chemistry, chemistry not fully specified) [compound 445500] | 81% |
| 445501 (antisense ATTGGTGCACAGTTTCTGGC; 6-8-6 gapmer chemistry, chemistry not fully specified) [compound 445501] | 83% |
| 445502 (antisense e[5mC]*eA*eT*eT*eG*eG*dT*dG*d[5mC]*dA*d[5mC]*dA*dG*dT*eT*eT*e[5mC]*eT*eG*eG) [compound 445502] | 83% |
| 445506 (antisense eA*e[5mC]*eG*eG*e[5mC]*eA*dT*dT*dG*dG*dT*dG*d[5mC]*dA*e[5mC]*eA*eG*eT*eT*eT) [compound 445506] | 86% |
| 445507 (antisense eG*eA*e[5mC]*eG*eG*e[5mC]*dA*dT*dT*dG*dG*dT*dG*d[5mC]*eA*e[5mC]*eA*eG*eT*eT) [compound 445507] | 85% |
| 445508 (antisense eG*eG*eA*e[5mC]*eG*eG*d[5mC]*dA*dT*dT*dG*dG*dT*dG*e[5mC]*eA*e[5mC]*eA*eG*eT) [compound 445508] | 81% |
| 445509 (antisense e[5mC]*eG*eG*eA*e[5mC]*eG*dG*d[5mC]*dA*dT*dT*dG*dG*dT*eG*e[5mC]*eA*e[5mC]*eA*eG) [compound 445509] | 84% |
| 445510 (antisense eG*e[5mC]*eG*eG*eA*e[5mC]*dG*dG*d[5mC]*dA*dT*dT*dG*dG*eT*eG*e[5mC]*eA*e[5mC]*eA) [compound 445510] | 88% |
| 445511 (antisense eA*eG*e[5mC]*eG*eG*eA*d[5mC]*dG*dG*d[5mC]*dA*dT*dT*dG*eG*eT*eG*e[5mC]*eA*e[5mC]) [compound 445511] | 77% |
| 445512 (antisense e[5mC]*eA*eG*e[5mC]*eG*eG*dA*d[5mC]*dG*dG*d[5mC]*dA*dT*dT*eG*eG*eT*eG*e[5mC]*eA) [compound 445512] | 79% |
| 445513 (antisense eG*e[5mC]*eA*eG*e[5mC]*eG*dG*dA*d[5mC]*dG*dG*d[5mC]*dA*dT*eT*eG*eG*eT*eG*e[5mC]) [compound 445513] | 85% |
| 445514 (antisense eG*eG*e[5mC]*eA*eG*e[5mC]*dG*dG*dA*d[5mC]*dG*dG*d[5mC]*dA*eT*eT*eG*eG*eT*eG) [compound 445514] | 81% |
| 445515 (antisense eT*eG*eG*e[5mC]*eA*eG*d[5mC]*dG*dG*dA*d[5mC]*dG*dG*d[5mC]*eA*eT*eT*eG*eG*eT) [compound 445515] | 75% |
| 445516 (antisense e[5mC]*eT*eG*eG*e[5mC]*eA*dG*d[5mC]*dG*dG*dA*d[5mC]*dG*dG*e[5mC]*eA*eT*eT*eG*eG) [compound 445516] | 79% |
| 445517 (antisense eA*e[5mC]*eT*eG*eG*e[5mC]*dA*dG*d[5mC]*dG*dG*dA*d[5mC]*dG*eG*e[5mC]*eA*eT*eT*eG) [compound 445517] | 74% |
| 445518 (antisense eA*eG*eT*eT*eT*d[5mC]*dT*dG*dG*d[5mC]*dA*dG*dG*e[5mC]*e[5mC]*eT*e[5mC]*eG) [compound 445518] | 75% |

| Substance | Percent inhibition of human Factor XI mRNA levels |
| --- | --- |
| 445519 (antisense e[5mC]*eA*eG*eT*eT*dT*d[5mC]*dT*dG*dG*d[5mC]*dA*dG*eG*e[5mC]*e[5mC]*eT*e[5mC]) [compound 445519] | 81% |
| 445520 (antisense eA*e[5mC]*eA*eG*eT*dT*dT*d[5mC]*dT*dG*dG*d[5mC]*dA*eG*eG*e[5mC]*e[5mC]*eT) [compound 445520] | 82% |
| 445521 (antisense e[5mC]*eA*e[5mC]*eA*eG*dT*dT*dT*d[5mC]*dT*dG*dG*d[5mC]*eA*eG*eG*e[5mC]*e[5mC]) [compound 445521] | 87% |
| 445523 (antisense eT*eG*e[5mC]*eA*e[5mC]*dA*dG*dT*dT*dT*d[5mC]*dT*dG*eG*e[5mC]*eA*eG*eG) [compound 445523] | 73% |
| 445524 (antisense eG*eT*eG*e[5mC]*eA*d[5mC]*dA*dG*dT*dT*dT*d[5mC]*dT*eG*eG*e[5mC]*eA*eG) [compound 445524] | 75% |
| 445525 (antisense eG*eG*eT*eG*e[5mC]*dA*d[5mC]*dA*dG*dT*dT*dT*d[5mC]*eT*eG*eG*e[5mC]*eA) [compound 445525] | 85% |
| 445526 (antisense eT*eG*eG*eT*eG*d[5mC]*dA*d[5mC]*dA*dG*dT*dT*dT*e[5mC]*eT*eG*eG*e[5mC]) [compound 445526] | 81% |
| 445527 (antisense eT*eT*eG*eG*eT*dG*d[5mC]*dA*d[5mC]*dA*dG*dT*dT*eT*e[5mC]*eT*eG*eG) [compound 445527] | 70% |
| 445528 (antisense eA*eT*eT*eG*eG*dT*dG*d[5mC]*dA*d[5mC]*dA*dG*dT*eT*eT*e[5mC]*eT*eG) [compound 445528] | 73% |
| 445529 (antisense e[5mC]*eA*eT*eT*eG*dG*dT*dG*d[5mC]*dA*d[5mC]*dA*dG*eT*eT*eT*e[5mC]*eT) [compound 445529] | 85% |
| 445530 (antisense eG*e[5mC]*eA*eT*eT*dG*dG*dT*dG*d[5mC]*dA*d[5mC]*dA*eG*eT*eT*eT*e[5mC]) [compound 445530] | 83% |
| 445533 (antisense eA*e[5mC]*eG*eG*e[5mC]*dA*dT*dT*dG*dG*dT*dG*d[5mC]*eA*e[5mC]*eA*eG*eT) [compound 445533] | 87% |
| 445534 (antisense eG*eA*e[5mC]*eG*eG*d[5mC]*dA*dT*dT*dG*dG*dT*dG*e[5mC]*eA*e[5mC]*eA*eG) [compound 445534] | 82% |
| 445535 (antisense eG*eG*eA*e[5mC]*eG*dG*d[5mC]*dA*dT*dT*dG*dG*dT*eG*e[5mC]*eA*e[5mC]*eA) [compound 445535] | 83% |
| 445536 (antisense e[5mC]*eG*eG*eA*e[5mC]*dG*dG*d[5mC]*dA*dT*dT*dG*dG*eT*eG*e[5mC]*eA*e[5mC]) [compound 445536] | 82% |
| 445537 (antisense eG*e[5mC]*eG*eG*eA*d[5mC]*dG*dG*d[5mC]*dA*dT*dT*dG*eG*eT*eG*e[5mC]*eA) [compound 445537] | 78% |
| 445538 (antisense eA*eG*e[5mC]*eG*eG*dA*d[5mC]*dG*dG*d[5mC]*dA*dT*dT*eG*eG*eT*eG*e[5mC]) [compound 445538] | 80% |
| 445539 (antisense e[5mC]*eA*eG*e[5mC]*eG*dG*dA*d[5mC]*dG*dG*d[5mC]*dA*dT*eT*eG*eG*eT*eG) [compound 445539] | 79% |
| 445540 (antisense eG*e[5mC]*eA*eG*e[5mC]*dG*dG*dA*d[5mC]*dG*dG*d[5mC]*dA*eT*eT*eG*eG*eT) [compound 445540] | 74% |
| 445541 (antisense eG*eG*e[5mC]*eA*eG*d[5mC]*dG*dG*dA*d[5mC]*dG*dG*d[5mC]*eA*eT*eT*eG*eG) [compound 445541] | 80% |
